The source of these data is paper PMC7351026, “Serum Half-Lives for Short- and Long-Chain Perfluoroalkyl Acids after Ceasing Exposure from Drinking Water Contaminated by Firefighting Foam” (Environmental Health Perspectives, 2020).

Like-named read-outs stand apart in the source and are kept apart here.

Data set [1] can be described thus: PFAS levels in serum samples of airport employees (LC/MS/MS). The following applies: all the serum samples, although elevated in the drinking water. From the text:
All 26 employees at the airport were invited for a blood sampling between 11 and 14 September 2018 (i.e., within 11 to 14 d after the termination of contaminated drinking-water exposure). Information on age, home address, employment history, working tasks, and sick leave and vacation days in August and September were collected by questionnaire. In addition, data on the number of glasses of water consumed per day, local fish consumption, and history of blood donation and medication were collected. For female employees, questions about menstruation, pregnancy, and duration of breast-feeding were asked.
The PFAS analysis in serum from the first sampling was immediately performed and personal results were reported to the employees. […] These 17 employees submitted four rounds of blood and first morning urine samples in parallel, at 1-month intervals. In total, there were five rounds of serum sampling (started from September) and four rounds of urine sampling (from October). For modeling of elimination, all samples were reanalyzed in a single batch. We obtained 83 serum samples with a median count of 5 (range: 4–5) samples per employee, and 59 urine samples with median of 4 (range: 1–4) samples per employee. Only one employee provided a single urine sample. The study was approved by the Regional Ethical Review Board in Lund, Sweden. All employees provided written informed consent.
Venous whole blood samples were obtained and were centrifuged for 10 min at 1,500×g at room temperature to isolate the serum on site. The serum samples were collected in 6-mL BD Vacutainer® Plus plastic serum tubes without gel (BD). Urine samples were collected in 13-mL polypropylene screw cap tubes (Sarstedt). Serum and urine samples were frozen at −20°C after sampling and transported to Lund using cold chain logistics. Serum and urine samples were stored at −80°C and −20°C , respectively, before analysis.
The serum samples, QC samples, and chemical blanks were prepared in 96-well plates with 1.5-mL flat-bottom glass vials (Biotech solutions). Serum samples were thawed for 1–2 h and mixed on a vortex shaker for approximately 10 s two times. Once after all samples were thawed and a second time before pipetting the serum to the plate. Before pipetting, the tip was pre-wetted several times, drawing a volume into the tip and dispensing it back into the tube. Sample preparation procedures for serum samples consisted of 25μL serum mixed with 25μL water, 25μL methanol, 25μL isotopically labeled internal standards in 50% acetonitrile (see Table S1), and 100μL acetonitrile. Thereafter, samples were mixed vigorous by shaking for 30 min and centrifuged at 2,600×g for 10 min at room temperature. The supernatant ( 0.2mL ) was transferred to 96-well plates with 0.5-mL conical glass vials (MicroLiter Analytical Supplies) and again centrifuged at 3,000×g for 10 min before analysis. The QC samples and chemical blanks were prepared following the same procedure as the serum samples. The calibration standards were prepared in FBS the same way as the samples, except for the addition of diluted reference standards of all analyzed compounds in 25μL of the methanol solution.
Aliquots of 4μL of the sample were analyzed using LC/MS/MS. For the analysis, a C18 column ( 4μm , 2.1mm i.d.×50mm , Genesis Lightning) was used prior to the injector to filter the mobile phases. The analytical column was an Aquity BEH ( 1.7μm , 2.1mm i.d.×100mm Waters). The mobile phases (A and B) were A: 5 mM ammonium acetate in water:methanol (50:50); and B: methanol. The mobile phase was kept at 0% B for 2.5 min after injection. A gradient was then applied over 11 min to 90% B, where it was then kept for 1.5 min. The column was then conditioned at 0% B for 2 min.

Details of data set [2]: method as in Zhang et al. 2015. The following applies: ref Zhang et al. 2015, cited from earlier work.
Data set [3] in a line: Urine/serum ratio in paired samples. In kind it is in vivo, human. The following applies: mean of four paired samplings per subject, 17 airport employees. On the procedure:
Urinary PFAS concentrations were specific-gravity adjusted. The ratio of urine and serum concentration for each PFAS (urine/serum ratio) at each sampling was calculated based on PFAS concentrations in paired serum and urine samples from 17 employees. Then the personal average urine/serum ratio was calculated using the mean value of repeated samplings for each employee.

The conditions of data set [4]: general Swedish population (Ronneby, 106 Swedes) with high exposure through drinking water, 2 y follow-up from 6 months after clean water; ref Li et al. 2018; cited from earlier work.
Data set [5] can be described thus: Population average serum elimination rate and half-life (linear mixed model, one compartment, first-order). How it is done:
Serum PFAS concentrations were log-transformed. Time was calculated as the elapsed days between supply of clean bottled water and […] blood sampling. We assumed one compartment, first-order elimination kinetics. In this kinetic model, the body is considered as one homogeneous volume in which mixing is instantaneous and from which PFAS could be absorbed, transferred, and eliminated according to the rate of elimination that is proportional to the concentration of PFAS in the body. Two methods were used to estimate serum elimination rate constant (k) and half-life for each PFAS:
Briefly, in the linear mixed model In Cij=αi+tijβ+Xiβ′+εij, Cij is the serum concentration of PFAS for individual i at sampling round j; αi is the subject-specific intercept (random intercept); tij is the time; β is the average slope; Xi is a vector of fixed covariates for individual i; β′ stands for the fixed effect coefficients; and εij is the random error term. We modified the model by excluding the subject-specific slope (random slope) due to a failure to converge after inclusion, which may be due to the limited number of study subjects. The negative value of the average slope ( −β ) is the population average k, and average half-life is calculated as ln2/k .
In the linear mixed model, we included only age and sex as covariates. We based covariate selection on factors that could conceivably confound the PFAS half-life estimation. Working task, duration of employment, number of glasses of water per day, blood donation, and pregnancy before mitigation of PFAS exposure from drinking water can influence the initial serum levels but would not be expected to influence the PFAS half-life.
A sensitivity analysis was performed using the same linear mixed model but with Cij as the serum levels after subtracting general background levels (using the median levels obtained from the nonexposed reference population). If the serum PFAS levels after subtraction were lower than the half of the background levels, they were replaced with half of the background levels.

For the compound `O=C(O)C(F)(F)C(F)(F)C(F)(F)C(F)(F)F` [PFPeA, perfluoropentanoic acid], the “Level in serum samples” value in data set [1] is reported as “below LOD”.
Consider `O=S(=O)(O)C(F)(F)C(F)(F)C(F)(F)C(F)(F)C(F)(F)C(F)(F)C(F)(F)C(F)(F)F` [PFOS, perfluorooctane sulfonic acid], for which the Urine/serum ratio in data set [2] (nonpregnant women) was 0.013; in data set [2] (pregnant women), 0.0004. The “Personal average urine/serum ratio, median (range)” value in data set [3] is listed as 0.00092. Besides, in data set [4], the Average half-life is reported as 3.4 y. For the same compound, the “Average half-life longer than that of the PFCA with same number of carbon atoms” value in data set [5] (PFHpS vs PFHpA, PFOS vs PFOA) is recorded as approximately 1.2 y. In data set [5] (population average, linear mixed model with original serum levels, 17 airport employees after end of drinking-water exposure), this compound showed an Average serum half-life of 2.9 y.
